Source: US8697140B2, “Virucidal disinfectant” (priority 2005, dated 2014)
Where “and” joins values, the source holds several entries; their conditions need not be identical. Equal entries are not always repeated.

What was measured:
[1] = system: poliovirus (polio vaccination strain type I, strain LSc-2ab)
poliovirus = conditions: cited from earlier work

Row | SMILES | Reduction of poliovirus titer [1] | Effectiveness against poliovirus (poliovirus)
1 | C=O [formaldehyde solution, formaldehyde] | 1.25 log10 steps and 2.13 log10 steps | 
2 | O=P(O)(O)O [phosphoric acid] |  | ineffective
